{"source": "patent US20170217982A1", "about": "“Compound isolated from Pseudolysimachion rotundum var. subintegrum, the composition comprising the same for treating allergic disease, inflammatory disease, asthma or chronic obstructive pulmonary disease and the use thereof” (YUNGJIN PHARMACEUTICAL CO., LTD, priority 2014, published 2017)", "key": {"NF-kappa B": {"tested_on": "NF-kappa B", "experiment": "NF-kappa B luciferase reporter assay in H292 cells", "type": "cell-based, human", "details": "10 μm, TNF-alpha 20 ng/ml", "method": "NF-kappa B luciferase reporter assay was performed by following procedure disclosed in the literature (Pulin Che et al., Assay Drug Dev. Technol., 2012, 10, 61-68).\nIn order to establish the stable cells for NF-kappa B luciferase reporter assay, NF-kappa B response element was cloned into vector (pGL4.32 vector, E849A, Promega) according to the manufacture's protocol and infected to the cell (H292 cells, CRL-1848, ATCC) using by Lipofectamine 2000 (11668-019, Invitrogen). The infected cell was selected using by hygromycin (400 μg/ml) for 2 weeks and the colonies were individually cloned and proliferated. […] The test sample was pre-treated in a pre-determined concentration and 20 ng/ml of TNF-alpha was treated therewith for 12 hours. The activity of luciferase enzyme was determined by E6110 kit (OneGlo Luciferase Assay kit, Promega) and DMSO was used as a vehicle control.\nThe stably expressed H292 cells, a […] human bronchial epithelium cell, with luciferase reporter vector pGL4.32 (luc2P/NF-KB-RE/Hygro, Promega Company) were established prior to following experiment. […] The activation degree of luciferase was determined by One-glow Luciferase Assay system (Promega Company). […] The luminescence was determined by Microplate Luminometer LB 96V (EG&G Berthold company) for 0.5 sec and the result was shown in Table 5 and FIG. 3."}, "COPD induced mice": {"tested_on": "COPD induced mice", "experiment": "Anti-COPD effect in cigarette smoke + LPS COPD mouse model", "type": "in vivo, C57BL/6N mouse", "details": "for activity of neutrophils elastase enzyme in BALF comparing with COPD induced group / reduced level of ROS in BALF comparing with COPD induced group / reduced level of neutrophils in BALF comparing with COPD induced group / reduced level of proteins in BALF comparing with COPD induced group / reduced level of IL-6 in BALF comparing with COPD induced group / reduced level of TNF-alpha in BALF comparing with COPD induced group: COPD mice; for reduced level of IL-6 in BALF comparing with COPD induced group / reduced level of TNF-alpha in BALF comparing with COPD induced group: ELISA", "method": "In order to determine the anti-COPD effect of inventive compounds in COPD animal model, following test was performed by using COPD induced mice as disclosed in the literature (Bhaysar, T. et al., J. Chronic Obstr. […]. Dis., 2008, 3, 477-481). Specific pathogen-free male C57BL/6N mouse (about 22-24 g), aged 6 weeks, which were routinely screened serologically for relevant respiratory pathogens, were purchased from Koatech Co. (koatech.co.kr, Seoul, Korea) and bred allowing to access freely to feed (antibiotic free, Samyang Oil & Feed Corp., Korea) and water in breeding room controlling the temperature of 22±2° C., and humidity of 55±15% at the light-dark cycle for 12 hours and acclimated with the experimental environment for 1 week. 2 kinds of test samples, […] ingredient: Roflumilast, 10 mg/kg) were dissolved in 0.5% sodium carboxymethyl cellulose ([…], Sigma-Aldrich, USA) and used as test samples. KS534, and Rolflumilast (ROF 11-492, HETERO, India) were orally administrated to the mice, 1 hour before prior the intratracheal instillation (i.t.). 3R4F Kentuchy Reference Cigarettes ([…], USA) was used as a standard cigarette for generating a cigarette smoke. The cigarette containing 9.4 mg of tar, 11 mg of TPM (total particle matter) and 12 mg of carbon monooxide per piece, was used after harmonizing with the temperature of 22±1° C. and humidity of 60±2% after opening for 48-72 hrs. The exposure of cigarette smoke was performed by using a cigarette smoke generator (DBL Co. Ltd., dhbiolink.com, Korea). The mice were divided into five groups: normal (NC), COPD (cigarette smoke with LPS intranasal instillation), Rof (10 mg/kg of roflumilast, p.o.+cigarette smoke with LPS intranasal instillation), and KS534-15 and 30 (15 mg/kg and 30 mg/kg of KS534, p.o.+cigarette smoke with LPS instillation, respectively). Exposure of cigarette smoke (one puff/min, 35 ml puff volume over 2 s, every 60 s, 8 cigarettes per day) was conducted using a cigarette smoke generator. The mice received 1 h of cigarette smoke exposure in an exposure chamber (50 cm×30 cm×30 cm) for 3 days. Roflumilast and piscroside C were administered to mice by oral lavage 1 h before cigarette smoke exposure for 3 days. LPS was intranasally instilled ([…] dissolved in 50 μL distilled water) under anesthesia 1 h after the final exposure to cigarette smoke. After the end of experiment, the blood, BALF, and pneumonocyte of each rat were isolated and collected to test. After finishing the experiment, rats were anaesthetized with Zoleti150 (3VX9, Virbac, France, p.o) and the blood was delivered through caudal veins. In order to isolate BALF from lung, the bronchus of right lung was ligated with suture and then performed to tracheostomy. IV-use catheter (16 GA, 3S-Cath, Dukwoo, Korea) was put into the bronchus, and both of bronchus and catheter (16 GA, 3S-Cath, Dukwoo, Korea) were fixed with suture. The injector containing 1 ml of DPBS 0.7 (Dubecco's phosphate-buffered saline, Invitrogen, USA) was connected thereto and DPBS was forced to circulate three times to isolate BALF. The right lung ligated with suture was isolated, fixed with 10% neutral formalin solution, and the remaining lung tissue was reserved in refrigerator at -70° C. The isolated BALF was centrifuged for 15 mins at 1500 rpm to prepare cell pellet and the supernatant was reserved in refrigerator at -70° C. for cytokine analysis. The cell pellet was suspended in DPBS, and the cell was attached to a slide glass using by cytospin centrifuge (CS03270047, Hanil, Korea). Diff-Quik staining (ZS1003, Sysmex, Japan) was performed and the cell was observed by optical microscopy (DM1000, Leica, German) to count the number of immunocyte in each test sample. The level of ROS in BALF isolated from the mice was determined by DCF-DA (dihydrodo chloro fluoresce indiacetate, 35854, Sigma-Aldrich, USA) and the final concentration of DCF-DA was adjusted to 20 μm in 200 μL to incubate 30 mins. […]"}}, "note": "“And” between values parts separate entries of the source, which are not always exact repeats. Equal values may be shown once.", "data": [{"smiles": "O=C(CO)O[C@@H]1O[C@@H]2C[C@H]3[C@H](OC(=O)c4ccc(O)c(O)c4)[C@@H](Cl)[C@@](O)(CO2)[C@@H]13", "note": "[KS-534, (3R,5S,5aS,6R,7S,8R,8aS)-8-chloro-8a-hydroxy-5-(2-hydroxyacetoxy) hexahydro-1H-3,6-methanocyclopenta[e][1,3]dioxepin-7-yl3,4-dihydroxybenzoate]", "values": [{"measurement": "Inhibitory ratio (%) of NF-kappa B activity", "setting": "NF-kappa B", "result": 36.65, "unit": "%"}, {"measurement": "NF-kappa B activity (relative % comparing with TNF-alpha treatment group)", "setting": "NF-kappa B", "result": "63.35% and 63.35 ± 6.18%"}, {"measurement": "activity of neutrophils elastase enzyme in BALF comparing with COPD induced group", "setting": "COPD induced mice; 15 mg/kg p.o.", "result": "remarkably reduced"}, {"measurement": "reduced level of ROS in BALF comparing with COPD induced group", "setting": "COPD induced mice; 15 mg/kg p.o.", "result": 19.5, "unit": "%"}, {"measurement": "reduced level of neutrophils in BALF comparing with COPD induced group", "setting": "COPD induced mice; 15 mg/kg p.o.", "result": 26.3, "unit": "%"}, {"measurement": "reduced level of proteins in BALF comparing with COPD induced group", "setting": "COPD induced mice; 15 mg/kg p.o.", "result": 20.8, "unit": "%"}, {"measurement": "reduced level of IL-6 in BALF comparing with COPD induced group", "setting": "COPD induced mice; 15 mg/kg p.o.", "result": 35.8, "unit": "%"}, {"measurement": "reduced level of TNF-alpha in BALF comparing with COPD induced group", "setting": "COPD induced mice; 15 mg/kg p.o.", "result": 18.3, "unit": "%"}, {"measurement": "activity of neutrophils elastase enzyme in BALF comparing with COPD induced group", "setting": "COPD induced mice; 30 mg/kg p.o.", "result": "remarkably reduced"}, {"measurement": "reduced level of ROS in BALF comparing with COPD induced group", "setting": "COPD induced mice; 30 mg/kg p.o.", "result": 27.5, "unit": "%"}, {"measurement": "reduced level of neutrophils in BALF comparing with COPD induced group", "setting": "COPD induced mice; 30 mg/kg p.o.", "result": 25.7, "unit": "%"}, {"measurement": "reduced level of proteins in BALF comparing with COPD induced group", "setting": "COPD induced mice; 30 mg/kg p.o.", "result": 28.5, "unit": "%"}, {"measurement": "invasion of the inflamed cells in lung tissue (histology)", "setting": "COPD induced mice; 30 mg/kg p.o., COPD mice (FIG. 14)", "result": "significantly reduced"}, {"measurement": "reduced level of IL-6 in BALF comparing with COPD induced group", "setting": "COPD induced mice; 30 mg/kg p.o.", "result": 50.6, "unit": "%"}, {"measurement": "reduced level of TNF-alpha in BALF comparing with COPD induced group", "setting": "COPD induced mice; 30 mg/kg p.o.", "result": 27.6, "unit": "%"}]}]}
